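Tested at 5 concentrations; 48 h exposure; 96-well plates; endpoints linearly interpolated, else capped at highest concentration. GI50 = concentration required for 50% inhibition of growth.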 The source made the active and inactive calls. No stated cut-off is given here; in the data, active = GI50 up to about 1.1 µM and inactive = higher.
Columns and labels:
Experiment in all cases: inhibition of tumour cell growth, NCI panel, 48 h
SF-539 = tested on: SF-539
SNB-78 = tested on: SNB-78
MDA-MB-435 = tested on: MDA-MB-435
DLD-1 = tested on: DLD-1
M14 = tested on: M14
RPMI-8226 = tested on: RPMI-8226
Malme-3M = tested on: Malme-3M
EKVX = tested on: EKVX
HOP-62 = tested on: HOP-62
SR = tested on: SR
DU-145 = tested on: DU-145
MCF7 = tested on: MCF7
DMS-273 = tested on: DMS-273
MDA-N = tested on: MDA-N
OVCAR-3 = tested on: OVCAR-3
SF-268 = tested on: SF-268
K562 = tested on: K562
T47D = tested on: T47D
UACC-62 = tested on: UACC-62
NCI/ADR-RES = tested on: NCI/ADR-RES
HOP-18 = tested on: HOP-18
HL-60 = tested on: HL-60
M19-MEL = tested on: M19-MEL
SNB-19 = tested on: SNB-19
SK-MEL-2 = tested on: SK-MEL-2
HCC 2998 = tested on: HCC 2998
CCRF-CEM = tested on: CCRF-CEM
SNB-75 = tested on: SNB-75
ACHN = tested on: ACHN
U-251 = tested on: U-251
IGROV-1 = tested on: IGROV-1
BT-549 = tested on: BT-549
SK-OV-3 = tested on: SK-OV-3
MOLT-4 = tested on: MOLT-4
A498 = tested on: A498
HCT-15 = tested on: HCT-15
CAKI-1 = tested on: CAKI-1
OVCAR-8 = tested on: OVCAR-8
UO-31 = tested on: UO-31
DMS-114 = tested on: DMS-114
NCI-H460 = tested on: NCI-H460
UACC-257 = tested on: UACC-257
PC-3 = tested on: PC-3
RXF 393 = tested on: RXF 393
NCI-H23 = tested on: NCI-H23
SW-620 = tested on: SW-620
COLO 205 = tested on: COLO 205
HOP-92 = tested on: HOP-92
SK-MEL-28 = tested on: SK-MEL-28
HT-29 = tested on: HT-29
TK-10 = tested on: TK-10
KM12 = tested on: KM12
LOX IMVI = tested on: LOX IMVI
SN12C = tested on: SN12C
MDA-MB-231 = tested on: MDA-MB-231
KM-20L2 = tested on: KM-20L2
786-0 = tested on: 786-0
OVCAR-4 = tested on: OVCAR-4
HCT-116 = tested on: HCT-116
LXFL 529 = tested on: LXFL 529
A549 = tested on: A549
SK-MEL-5 = tested on: SK-MEL-5
NCI-H226 = tested on: NCI-H226
SF-295 = tested on: SF-295
NCI-H522 = tested on: NCI-H522
OVCAR-5 = tested on: OVCAR-5

Measured: GI50

CC1OC(=O)C(C(C)C)NC(=O)C(C(C)C)OC(=O)C(C(C)C)NC(=O)C(C)OC(=O)C(C(C)C)NC(=O)C(C(C)C)OC(=O)C(C(C)C)NC(=O)C(C)OC(=O)C(C(C)C)NC(=O)C(C(C)C)OC(=O)C(C(C)C)NC1=O (stereo unspecified)
3.4 nM: HCT-15
active: SF-539 3.33 nM | SNB-78 3.91 nM | MDA-MB-435 < 0.1 nM | DLD-1 3.26 nM | M14 < 0.1 nM | RPMI-8226 2.5 nM | Malme-3M 2.5 nM | EKVX 19.8 nM | HOP-62 2.5 nM | SR < 0.1 nM | DU-145 0.102 nM | MCF7 2.5 nM | DMS-273 2.5 nM | MDA-N < 0.1 nM | OVCAR-3 2.5 nM | SF-268 3.14 nM | K562 2.99 nM | T47D < 0.1 nM | UACC-62 2.5 nM | NCI/ADR-RES 7.28 nM | HOP-18 33.7 nM | HL-60 2.75 nM | M19-MEL 3.67 nM | SNB-19 3.49 nM | SK-MEL-2 2.88 nM | HCC 2998 2.56 nM | CCRF-CEM 3.2 nM | SNB-75 3.01 nM | ACHN < 0.1 nM | U-251 2.5 nM | IGROV-1 2.75 nM | BT-549 < 0.1 nM | SK-OV-3 3.26 nM | MOLT-4 2.5 nM | A498 2.5 nM | CAKI-1 2.88 nM | OVCAR-8 2.5 nM | UO-31 2.81 nM | DMS-114 2.5 nM | NCI-H460 2.79 nM | UACC-257 2.5 nM | PC-3 < 0.1 nM | RXF 393 3.24 nM | NCI-H23 2.5 nM | SW-620 2.5 nM | COLO 205 2.5 nM | HOP-92 2.55 nM | SK-MEL-28 2.5 nM | HT-29 2.5 nM | TK-10 < 0.1 nM | KM12 2.72 nM | LOX IMVI 5.38 nM | SN12C 2.73 nM | MDA-MB-231 < 0.1 nM | KM-20L2 3.4 nM | 786-0 < 0.1 nM

Cc1[nH]c(O)nc1C(=O)c1ccc(-n2ccnc2)cc1
inactive: OVCAR-4 > 100000 nM | SF-539 > 100000 nM | DLD-1 > 100000 nM | M14 > 100000 nM | RPMI-8226 > 100000 nM | Malme-3M > 100000 nM | HCT-116 > 100000 nM | HOP-62 > 100000 nM | SR > 100000 nM | LXFL 529 > 100000 nM | A549 > 100000 nM | DMS-273 > 100000 nM | OVCAR-3 > 100000 nM | SF-268 > 100000 nM | K562 > 100000 nM | UACC-62 > 100000 nM | SK-MEL-5 > 100000 nM | HL-60 > 100000 nM | M19-MEL > 100000 nM | SNB-19 > 100000 nM | SK-MEL-2 > 100000 nM | HCC 2998 > 100000 nM | SNB-75 > 100000 nM | ACHN > 100000 nM | U-251 > 100000 nM | IGROV-1 > 100000 nM | SK-OV-3 > 100000 nM | MOLT-4 > 100000 nM | A498 > 100000 nM | NCI-H226 > 100000 nM | CAKI-1 > 100000 nM | OVCAR-8 > 100000 nM | UO-31 > 100000 nM | DMS-114 > 100000 nM | NCI-H460 > 100000 nM | UACC-257 > 100000 nM | RXF 393 > 100000 nM | SW-620 > 100000 nM | SF-295 > 100000 nM | NCI-H522 > 100000 nM | SK-MEL-28 > 100000 nM | HT-29 > 100000 nM | KM12 > 100000 nM | LOX IMVI > 100000 nM | SN12C > 100000 nM | OVCAR-5 > 100000 nM | KM-20L2 > 100000 nM | 786-0 > 100000 nM
> 100000 nM: HCT-15

Source: ChEMBL document CHEMBL1201862, “PubChem BioAssay data set” (2004)
